Measured values published in the supplement of paper PMC10307832.

compound: CC1=C(C(=NN1)C)CC2=C(C3=C(S2)N(C(=O)N(C3=O)C)CC(C)C)C(=O)N4C[C@@H](CO4)O + C[C@@H](Oc1cc(-c2cnn(C3CCNCC3)c2)cnc1N)c1c(Cl)ccc(F)c1Cl [Crizotinib] (partner 1 µM); assay: relative viability (nuclei count vs DMSO), 5 days (fraction); higher = more cells survive; conditions: first compound 0.25 µM
Method in brief: (§1)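 Relative viability is defined as nuclei in treated wells over nuclei in vehicle wells. Duplicate plates were run and medians reported. Lung cancer cell lines in 1536-well plates were dosed by pin tool one day after seeding, with one drug or with a fixed anchor-drug dose plus five library-drug doses (not always all listed) in √10 steps, and nuclei were counted after 5 days.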

Cell Line	relative viability
PC-3 [JPC-3]	1.08

compound: CC1=C(C(=NN1)C)CC2=C(C3=C(S2)N(C(=O)N(C3=O)C)CC(C)C)C(=O)N4C[C@@H](CO4)O + C[C@]1(O)C[C@@H](c2nc(-c3ccc4ccc(-c5ccccc5)nc4c3)c3c(N)nccn32)C1 [Linsitinib] (partner 1 µM); assay: as above; conditions: first compound 0.0025 µM
Method in brief: as §1

Cell Line	relative viability
HCC-827	1.01
LXF-289	1.02
NCI-H23	0.521
NCI-H647	1.33
CAL-12T	0.899
NCI-H1651	1.03
EPLC-272H	1.24
NCI-H2228	0.912
NCI-H1792	0.722
NCI-H1355	0.889
NCI-H3122	1.04
NCI-H1437	1.03
NCI-H1755	1.05
NCI-H2023	0.648
HCC-15	0.932
PC-14	1.06
EKVX	0.978
LC-2-ad	0.848
NCI-H1563	1.15
NCI-H1944	1.13
NCI-H1975	0.956
RERF-LC-KJ	0.973
ABC-1	0.676
NCI-H358	0.707
NCI-H650	1.03
PC-3 [JPC-3]	0.966

same assay, conditions: first compound 0.007906 µM

Cell Line	relative viability
HCC-827	1.01
LXF-289	0.919
NCI-H23	0.548
NCI-H647	1.37
CAL-12T	0.853
NCI-H1651	1.26
EPLC-272H	1.13
NCI-H2228	1.07
NCI-H1792	0.541
NCI-H1355	0.927
NCI-H3122	1.08
NCI-H1437	1.21
NCI-H1755	1.03
NCI-H2023	0.786
HCC-15	0.937
PC-14	1.02
EKVX	1.05
LC-2-ad	0.928
NCI-H1563	1.24
NCI-H1944	1.1
NCI-H1975	1.04
RERF-LC-KJ	0.931
ABC-1	0.793
NCI-H358	0.794
NCI-H650	0.973
PC-3 [JPC-3]	0.945

same assay, conditions: first compound 0.025 µM

Cell Line	relative viability
HCC-827	0.96
LXF-289	0.957
NCI-H23	0.516
NCI-H647	1.33
CAL-12T	0.845
NCI-H1651	0.944
EPLC-272H	1.32
NCI-H2228	0.672
NCI-H1792	0.487
NCI-H1355	0.867
NCI-H3122	0.99
NCI-H1437	1.01
NCI-H1755	0.975
NCI-H2023	0.696
HCC-15	0.871
PC-14	0.93
EKVX	0.939
LC-2-ad	0.9
NCI-H1563	1.26
NCI-H1944	1.27
NCI-H1975	1
RERF-LC-KJ	0.925
ABC-1	0.905
NCI-H358	0.801
NCI-H650	0.63
PC-3 [JPC-3]	0.974

same assay, conditions: first compound 0.07906 µM

Cell Line	relative viability
HCC-827	0.949
LXF-289	0.953
NCI-H23	0.565
NCI-H647	1.24
CAL-12T	0.807
NCI-H1651	0.908
EPLC-272H	0.986
NCI-H2228	0.764
NCI-H1792	0.402
NCI-H1355	0.791
NCI-H3122	0.976
NCI-H1437	1.1
NCI-H1755	0.957
NCI-H2023	0.777
HCC-15	0.942
PC-14	0.936
EKVX	1.05
LC-2-ad	0.869
NCI-H1563	1.23
NCI-H1944	1.15
NCI-H1975	0.949
RERF-LC-KJ	0.899
ABC-1	1.27
NCI-H358	0.892
NCI-H650	0.858
PC-3 [JPC-3]	0.958

same assay, conditions: first compound 0.25 µM

Cell Line	relative viability
HCC-827	0.963
LXF-289	1.04
NCI-H23	0.777
NCI-H647	1.44
CAL-12T	1.11
NCI-H1651	1.06
EPLC-272H	1.27
NCI-H2228	0.674
NCI-H1792	0.344
NCI-H1355	0.785
NCI-H3122	0.947
NCI-H1437	1.08
NCI-H1755	0.976
NCI-H2023	0.683
HCC-15	0.855
PC-14	0.94
EKVX	1.04
LC-2-ad	0.843
NCI-H1563	1.23
NCI-H1944	1.07
NCI-H1975	1.08
RERF-LC-KJ	0.95
ABC-1	0.8
NCI-H358	0.998
NCI-H650	0.791
PC-3 [JPC-3]	1.01

compound: Cc1ccccc1C(C(=O)NC1CCCCC1)N(C(=O)Cn1ccnc1C)c1cccc(F)c1 [IDH-C35] + COc1cccc2cc(-c3nc([C@H]4CC[C@H](C(=O)O)CC4)n4ncnc(N)c34)[nH]c12 [OSI-027] (partner 0.5 µM); assay: as above; conditions: first compound 0.08 µM
Method in brief: as §1

Cell Line	relative viability
HCC-827	0.78
LXF-289	0.79
NCI-H23	0.582
NCI-H647	0.683
CAL-12T	0.642
NCI-H1651	0.7
EPLC-272H	0.26
NCI-H2228	0.729
NCI-H1792	0.725
NCI-H1355	0.422
NCI-H3122	1.03
NCI-H1437	0.876
NCI-H1755	0.754
NCI-H2023	0.418
HCC-15	0.632
PC-14	0.956
EKVX	0.752
LC-2-ad	0.9
NCI-H1563	0.769
NCI-H1944	0.418
NCI-H1975	0.64
RERF-LC-KJ	0.562
ABC-1	0.528
NCI-H358	0.776
NCI-H650	0.558
PC-3 [JPC-3]	0.767

same assay, conditions: first compound 0.253 µM

Cell Line	relative viability
HCC-827	0.662
LXF-289	0.761
NCI-H23	0.635
NCI-H647	0.676
CAL-12T	0.759
NCI-H1651	0.686
EPLC-272H	0.282
NCI-H2228	0.687
NCI-H1792	0.718
NCI-H1355	0.445
NCI-H3122	1.04
NCI-H1437	0.907
NCI-H1755	0.64
NCI-H2023	0.417
HCC-15	0.656
PC-14	0.798
EKVX	0.641
LC-2-ad	0.908
NCI-H1563	0.721
NCI-H1944	0.415
NCI-H1975	0.71
RERF-LC-KJ	0.631
ABC-1	0.516
NCI-H358	0.757
NCI-H650	0.571
PC-3 [JPC-3]	0.74

same assay, conditions: first compound 0.8 µM

Cell Line	relative viability
HCC-827	0.694
LXF-289	0.757
NCI-H23	0.558
NCI-H647	0.573
CAL-12T	0.667
NCI-H1651	0.746
EPLC-272H	0.268
NCI-H2228	0.55
NCI-H1792	0.705
NCI-H1355	0.382
NCI-H3122	0.929
NCI-H1437	0.842
NCI-H1755	0.707
NCI-H2023	0.426
HCC-15	0.614
PC-14	0.755
EKVX	0.646
LC-2-ad	0.806
NCI-H1563	0.788
NCI-H1944	0.413
NCI-H1975	0.778
RERF-LC-KJ	0.643
ABC-1	0.582
NCI-H358	0.698
NCI-H650	0.466
PC-3 [JPC-3]	0.747

same assay, conditions: first compound 2.53 µM

Cell Line	relative viability
HCC-827	0.71
LXF-289	0.783
NCI-H23	0.392
NCI-H647	0.569
CAL-12T	0.704
NCI-H1651	0.644
EPLC-272H	0.273
NCI-H2228	0.586
NCI-H1792	0.742
NCI-H1355	0.466
NCI-H3122	0.917
NCI-H1437	0.828
NCI-H1755	0.68
NCI-H2023	0.411
PC-14	0.837
EKVX	0.657
NCI-H1563	0.768
NCI-H1944	0.442
NCI-H1975	0.741
RERF-LC-KJ	0.614
ABC-1	0.531
NCI-H358	0.775
PC-3 [JPC-3]	0.809

same assay, conditions: first compound 8 µM

Cell Line	relative viability
HCC-827	0.771
LXF-289	0.709
NCI-H23	0.453
NCI-H647	0.665
CAL-12T	0.489
NCI-H1651	0.703
EPLC-272H	0.257
NCI-H2228	0.535
NCI-H1792	0.75
NCI-H1355	0.395
NCI-H3122	0.948
NCI-H1437	0.756
NCI-H1755	0.706
NCI-H2023	0.307
HCC-15	0.604
PC-14	0.711
EKVX	0.68
LC-2-ad	0.899
NCI-H1563	0.727
NCI-H1944	0.392
NCI-H1975	0.763
RERF-LC-KJ	0.597
ABC-1	0.441
NCI-H358	0.756
NCI-H650	0.509
PC-3 [JPC-3]	0.747
